Test [1] has as its system Mycolicibacterium smegmatis. The test is described as follows: Antimycobacterial activity against Mycobacterium smegmatis assessed as growth inhibition incubated for 7 days by microplate alamar blue bioassay. The test is classed as functional. The following applies: 168 h, time 7 day.
The subject of test [2] is Mycobacterium tuberculosis. The experiment in a line: Antimycobacterial activity against Mycobacterium tuberculosis assessed as growth inhibition incubated for 7 days by microplate alamar blue bioassay. The test is classed as functional. The following applies: 168 h, time 7 day. (Resazurin is reduced to fluorescent resorufin, in cell work by metabolically active cells.)

Values after ≈ are worked out from the molar mass of the structure shown.

Turning to `O=C(/C=C/C=C/c1ccc2c(c1)OCO2)N1CCCCC1` [PIPERINE], the figures for the MIC in test [1] and in test [2] were 1.74 mg/L (≈ 6.1 µM) and 2.62 mg/L (≈ 9.18 µM), respectively.

The term MIC denotes the least concentration at which growth counts as inhibited.

The values above are taken from ChEMBL document CHEMBL5226293, “Biologically Significant and Recently Isolated Alkaloids from Endophytic Fungi” (2021).
